Experimental data as given in patent US8188134B2, “Thiophene-carboxamides useful as inhibitors of protein kinases” (Vertex Pharmaceuticals Incorporated, priority 2006, dated 2012).

Molecular target: T1, Plk1 (Homo sapiens, UniProt P53350)
T1 construct: in the presence of 15 nM Plk1 (A20-K338)
Assay: Plk1 inhibition assay (radioactive-phosphate incorporation)
Assay type: biochemical
Settings: Ki(app)
Method: The compounds of the present invention are evaluated as inhibitors of human PLK kinase using the following assays.
Compounds were screened for their ability to inhibit Plk1 using a radioactive-phosphate incorporation assay. Assays were carried out in a mixture of 25 mM HEPES (pH 7.5), 10 mM MgCl2, and 1 mM DTT. Final substrate concentrations were 50 μM [γ-33P]ATP (136 mCi 33P ATP/mmol ATP, Amersham Pharmacia Biotech/Sigma Chemicals) and 10 μM peptide (SAM68 protein Δ332-443). Assays were carried out at 25° C. in the presence of 15 nM Plk1 (A20-K338). An assay stock buffer solution was prepared containing all of the reagents listed above, with the exception of ATP and the test compound of interest. 30 μL of the stock solution was placed in a 96 well plate followed by addition of 2 μL of DMSO stock containing serial dilutions of the test compound (typically starting from a final concentration of 10 μM with 2-fold serial dilutions) in duplicate (final DMSO concentration 5%). The plate was pre-incubated for 10 minutes at 25° C. and the reaction initiated by addition of 8 μL [γ-33P]ATP (final concentration 50 μM). […]
After removing mean background values for all of the data points, Ki(app) data were calculated from non-linear regression analysis of the initial rate data using the Prism software package (GraphPad Prism version 3.0cx for Macintosh, GraphPad Software, San Diego Calif., USA). […]

T1 sequence (P53350 20-338): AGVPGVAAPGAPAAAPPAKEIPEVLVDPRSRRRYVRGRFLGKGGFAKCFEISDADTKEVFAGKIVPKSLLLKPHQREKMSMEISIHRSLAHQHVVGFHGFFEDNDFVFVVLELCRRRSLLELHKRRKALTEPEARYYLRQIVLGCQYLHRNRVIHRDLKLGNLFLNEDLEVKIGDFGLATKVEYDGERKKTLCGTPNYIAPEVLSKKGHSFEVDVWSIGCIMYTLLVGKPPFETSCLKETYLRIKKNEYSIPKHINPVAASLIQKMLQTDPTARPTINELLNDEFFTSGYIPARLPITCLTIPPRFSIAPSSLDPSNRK

Row | SMILES | Ki (the text does not say which of the two Plk1 protocols was used) | Ki (lower bound in nM, upper bound in μM, protocol not specified)
1 | CC(Oc1cc(-n2ccnc2)sc1C(N)=O)c1ccccc1Cl (centres unmarked) [I-1, 3-[1-(2-Chloro-phenyl)-ethoxy]-5-imidazol-1-yl-thiophene-2-carboxylic acid amide] | 10 to 100 nM | 
2 | CC(Oc1cc(-c2cc(N)n[nH]2)sc1C(N)=O)c1ccccc1Cl (centres unmarked) [I-2, 5-(5-Amino-2H-pyrazol-3-yl)-3-[1-(2-chloro-phenyl)-ethoxy]-thiophene-2-carboxylic acid amide] |  | 100 to 4000 nM
